Measurements reported in patent publication US7517874B2 (priority 2007, dated 2009).
Read-outs that look alike come from different tables or passages of the source.

Legend:
[1] = molecular target: human CB1 receptor (hCB1) (Homo sapiens, UniProt P21554); assay: cell-based; format: cell-based
Procedure, shortened: (§1)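 Readout: LANCE TR-FRET cAMP, back-calculated from a concurrent standard curve and scaled between forskolin-only and forskolin + 1 μM CP55,940 wells. EC50 and intrinsic activity came from four-parameter fits.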

rat CB2 receptor (rCB2) = molecular target: T1, rat CB2 receptor (rCB2) (Rattus norvegicus, UniProt Q9QZN9); assay: cell-based; format: cell-based; settings: for +/− RCB2: agonist or inverse agonist at rCB2
T1 sequence (Q9QZN9 1-360): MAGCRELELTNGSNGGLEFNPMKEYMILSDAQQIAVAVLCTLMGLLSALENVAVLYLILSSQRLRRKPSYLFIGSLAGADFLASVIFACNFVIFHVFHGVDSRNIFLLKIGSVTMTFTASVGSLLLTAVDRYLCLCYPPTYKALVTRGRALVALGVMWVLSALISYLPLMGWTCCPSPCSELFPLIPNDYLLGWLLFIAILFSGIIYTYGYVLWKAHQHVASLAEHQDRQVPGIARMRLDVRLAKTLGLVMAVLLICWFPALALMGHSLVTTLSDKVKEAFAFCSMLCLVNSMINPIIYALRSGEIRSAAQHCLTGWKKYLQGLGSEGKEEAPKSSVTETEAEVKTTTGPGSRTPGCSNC
Procedure, shortened: as §1

human CB1 receptor (hCB1), sequence (P21554 whole entry): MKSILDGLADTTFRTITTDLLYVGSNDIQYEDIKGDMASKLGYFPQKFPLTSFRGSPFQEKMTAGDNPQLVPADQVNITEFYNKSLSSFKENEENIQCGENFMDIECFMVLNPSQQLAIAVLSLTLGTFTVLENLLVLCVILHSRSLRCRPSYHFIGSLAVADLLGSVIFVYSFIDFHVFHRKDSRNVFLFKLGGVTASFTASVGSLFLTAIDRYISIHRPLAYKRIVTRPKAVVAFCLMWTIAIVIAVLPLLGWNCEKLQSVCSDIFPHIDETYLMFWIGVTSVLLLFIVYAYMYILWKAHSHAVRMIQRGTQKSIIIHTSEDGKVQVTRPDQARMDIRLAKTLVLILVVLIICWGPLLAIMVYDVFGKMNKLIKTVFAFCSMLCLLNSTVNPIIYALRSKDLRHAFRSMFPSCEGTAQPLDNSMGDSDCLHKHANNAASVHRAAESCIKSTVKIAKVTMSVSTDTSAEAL

CNC(=O)[C@@H](NC(=O)c1nc(/C=C/C(C)(C)C)n2c1CN(C)CCC2)C(C)(C)C [Compound 397, (S,E)-N-(3,3-dimethyl-1-(methylamino)-1-oxobutan-2-yl)-3-(3,3-dimethylbut-1-enyl)-8-methyl-6,7,8,9-tetrahydro-5H-imidazo[1,5-a][1,4]diazepine-1-carboxamide]
+/− HCB1 ([1]; agonist or inverse agonist at hCB1): +
+/− RCB2 (rat CB2 receptor (rCB2)): +

CNC(=O)[C@@H](NC(=O)c1nc(/C=C/COC)n2c1CN(C)CCC2)C(C)(C)C [Compound 398, (S,E)-N-(3,3-dimethyl-1-(methylamino)-1-oxobutan-2-yl)-3-(3-methoxyprop-1-enyl)-8-methyl-6,7,8,9-tetrahydro-5H-imidazo[1,5-a][1,4]diazepine-1-carboxamide]
EC50 [1]: > 10000 nM
+/− RCB2 (rat CB2 receptor (rCB2)): +

CNC(=O)[C@@H](NC(=O)c1nc(-c2ccccc2C(F)(F)F)n2c1CN(C)CCC2)C(C)(C)C [Compound 399, (S)-N-(3,3-dimethyl-1-(methylamino)-1-oxobutan-2-yl)-8-methyl-3-(2-(trifluoromethyl)phenyl)-6,7,8,9-tetrahydro-5H-imidazo[1,5-a][1,4]diazepine-1-carboxamide]
EC50 [1]: > 10000 nM
+/− RCB2 (rat CB2 receptor (rCB2)): +

CCCC/C=C/c1nc(C(=O)N[C@H](C(=O)NC)C(C)(C)C)c2n1CCCN(C)C2 [Compound 400, (S,E)-N-(3,3-dimethyl-1-(methylamino)-1-oxobutan-2-yl)-3-(hex-1-enyl)-8-methyl-6,7,8,9-tetrahydro-5H-imidazo[1,5-a][1,4]diazepine-1-carboxamide]
EC50 [1]: > 10000 nM
+/− RCB2 (rat CB2 receptor (rCB2)): +

CNC(=O)[C@@H](NC(=O)c1nc(-c2ccc(C(=O)N3CCOCC3)cc2)n2c1CN(C)CCC2)C(C)(C)C [Compound 401, (S)-N-(3,3-dimethyl-1-(methylamino)-1-oxobutan-2-yl)-8-methyl-3-(4-(morpholine-4-carbonyl)phenyl)-6,7,8,9-tetrahydro-5H-imidazo[1,5-a][1,4]diazepine-1-carboxamide]
EC50 [1]: > 10000 nM
EC50 (rat CB2 receptor (rCB2)): > 10000 nM

CNC(=O)[C@@H](NC(=O)c1nc(-c2ccncc2)n2c1CN(C)CCC2)C(C)(C)C [Compound 402, (S)-N-(3,3-dimethyl-1-(methylamino)-1-oxobutan-2-yl)-8-methyl-3-(pyridin-4-yl)-6,7,8,9-tetrahydro-5H-imidazo[1,5-a][1,4]diazepine-1-carboxamide]
EC50 [1]: > 10000 nM
+/− RCB2 (rat CB2 receptor (rCB2)): +

CNC(=O)[C@@H](NC(=O)c1nc(-c2ccccc2C(C)C)n2c1CN(C)CCC2)C(C)(C)C [Compound 403, (S)-N-(3,3-dimethyl-1-(methylamino)-1-oxobutan-2-yl)-3-(2-isopropylphenyl)-8-methyl-6,7,8,9-tetrahydro-5H-imidazo[1,5-a][1,4]diazepine-1-carboxamide]
EC50 [1]: > 10000 nM
+/− RCB2 (rat CB2 receptor (rCB2)): +

CNC(=O)[C@@H](NC(=O)c1nc(-c2ccc(OC)c(F)c2)n2c1CN(C)CCC2)C(C)(C)C [Compound 404, (S)-N-(3,3-dimethyl-1-(methylamino)-1-oxobutan-2-yl)-3-(3-fluoro-4-methoxyphenyl)-8-methyl-6,7,8,9-tetrahydro-5H-imidazo[1,5-a][1,4]diazepine-1-carboxamide]
EC50 [1]: > 10000 nM
EC50 (rat CB2 receptor (rCB2)): > 10000 nM

CNC(=O)[C@@H](NC(=O)c1nc(-c2cc(C(N)=O)ccc2F)n2c1CN(C)CCC2)C(C)(C)C [Compound 405, (S)-3-(5-carbamoyl-2-fluorophenyl)-N-(3,3-dimethyl-1-(methylamino)-1-oxobutan-2-yl)-8-methyl-6,7,8,9-tetrahydro-5H-imidazo[1,5-a][1,4]diazepine-1-carboxamide]
EC50 ([1]; groups >100 nM-10 μM and >10 μM, cAMP, CHO-K1 hCB1, read-out: EC50 HCB1): > 10000 nM
EC50 (rat CB2 receptor (rCB2); groups >100 nM-10 μM and >10 μM, cAMP, CHO-K1 rCB2, read-out: EC50 RCB2): > 10000 nM

CNC(=O)c1cc(-c2nc(C(=O)N[C@H](C(=O)NC)C(C)(C)C)c3n2CCCN(C)C3)ccc1F [Compound 406, (S)-N-(3,3-dimethyl-1-(methylamino)-1-oxobutan-2-yl)-3-(4-fluoro-3-(methylcarbamoyl)phenyl)-8-methyl-6,7,8,9-tetrahydro-5H-imidazo[1,5-a][1,4]diazepine-1-carboxamide]
EC50 [1]: > 10000 nM
+/− RCB2 (rat CB2 receptor (rCB2)): +

CNC(=O)[C@@H](NC(=O)c1nc(-c2cccc(-c3nnc(C)o3)c2)n2c1CN(C)CCC2)C(C)(C)C [Compound 407, (S)-N-(3,3-dimethyl-1-(methylamino)-1-oxobutan-2-yl)-8-methyl-3-(3-(5-methyl-1,3,4-oxadiazol-2-yl)phenyl)-6,7,8,9-tetrahydro-5H-imidazo[1,5-a][1,4]diazepine-1-carboxamide]
EC50 [1]: > 10000 nM
EC50 (rat CB2 receptor (rCB2)): > 10000 nM

CNC(=O)c1ccc(-c2nc(C(=O)N[C@H](C(=O)NC)C(C)(C)C)c3n2CCCN(C)C3)cc1 [Compound 408]
EC50 [1]: > 10000 nM
EC50 (rat CB2 receptor (rCB2)): > 10000 nM

CNC(=O)[C@@H](NC(=O)c1nc(-c2cccc(S(C)(=O)=O)c2)n2c1CN(C)CCC2)C(C)(C)C [Compound 409]
EC50 [1]: > 10000 nM
+/− RCB2 (rat CB2 receptor (rCB2)): −

CNC(=O)[C@@H](NC(=O)c1nc(-c2ccc(S(=O)(=O)N(C)C)cc2)n2c1CN(C)CCC2)C(C)(C)C [Compound 410, (S)-N-(3,3-dimethyl-1-(methylamino)-1-oxobutan-2-yl)-3-(4-(N,N-dimethylsulfamoyl)phenyl)-8-methyl-6,7,8,9-tetrahydro-5H-imidazo[1,5-a][1,4]diazepine-1-carboxamide]
EC50 [1]: > 10000 nM
EC50 (rat CB2 receptor (rCB2)): > 10000 nM

CNC(=O)[C@@H](NC(=O)c1nc(-c2ccc(F)c(C(=O)O)c2)n2c1CN(C)CCC2)C(C)(C)C [Compound 411]
EC50 [1]: > 10000 nM
EC50 (rat CB2 receptor (rCB2)): > 10000 nM

CNC(=O)[C@@H](NC(=O)c1nc(-c2cccc(C(=O)N(C)C)c2)n2c1CN(C)CCC2)C(C)(C)C [Compound 412, (S)-N-(3,3-dimethyl-1-(methylamino)-1-oxobutan-2-yl)-3-(3-(dimethylcarbamoyl)phenyl)-8-methyl-6,7,8,9-tetrahydro-5H-imidazo[1,5-a][1,4]diazepine-1-carboxamide]
EC50 [1]: > 10000 nM
EC50 (rat CB2 receptor (rCB2)): > 10000 nM

CNC(=O)[C@@H](NC(=O)c1nc(-c2ccccc2-c2ccccc2)n2c1CN(C)CCC2)C(C)(C)C [Compound 413, (S)-3-(biphenyl-2-yl)-N-(3,3-dimethyl-1-(methylamino)-1-oxobutan-2-yl)-8-methyl-6,7,8,9-tetrahydro-5H-imidazo[1,5-a][1,4]diazepine-1-carboxamide]
EC50 [1]: > 10000 nM
EC50 (rat CB2 receptor (rCB2)): > 10000 nM

CNC(=O)[C@@H](NC(=O)c1nc(-c2ccc(C(C)(C)C)cc2)n2c1CN(C)CCC2)C(C)(C)C [Compound 414, (S)-3-(4-tert-butylphenyl)-N-(3,3-dimethyl-1-(methylamino)-1-oxobutan-2-yl)-8-methyl-6,7,8,9-tetrahydro-5H-imidazo[1,5-a][1,4]diazepine-1-carboxamide]
EC50 [1]: > 10000 nM
+/− RCB2 (rat CB2 receptor (rCB2)): −

CNC(=O)[C@@H](NC(=O)c1nc(-c2ccc(C(C)=O)cc2)n2c1CN(C)CCC2)C(C)(C)C [Compound 415, (S)-3-(4-acetylphenyl)-N-(3,3-dimethyl-1-(methylamino)-1-oxobutan-2-yl)-8-methyl-6,7,8,9-tetrahydro-5H-imidazo[1,5-a][1,4]diazepine-1-carboxamide]
EC50 [1]: > 10000 nM
EC50 (rat CB2 receptor (rCB2)): > 10000 nM

CNC(=O)[C@@H](NC(=O)c1nc(-c2cc(F)cc(C(N)=O)c2)n2c1CN(C)CCC2)C(C)(C)C [Compound 416, (S)-3-(3-carbamoyl-5-fluorophenyl)-N-(3,3-dimethyl-1-(methylamino)-1-oxobutan-2-yl)-8-methyl-6,7,8,9-tetrahydro-5H-imidazo[1,5-a][1,4]diazepine-1-carboxamide]
EC50 [1]: > 10000 nM
+/− RCB2 (rat CB2 receptor (rCB2)): +

CNC(=O)[C@@H](NC(=O)c1nc(-c2cccc3ccccc23)n2c1CN(C)CCC2)C(C)(C)C [Compound 417, (S)-N-(3,3-dimethyl-1-(methylamino)-1-oxobutan-2-yl)-8-methyl-3-(naphthalen-1-yl)-6,7,8,9-tetrahydro-5H-imidazo[1,5-a][1,4]diazepine-1-carboxamide]
EC50 [1]: > 10000 nM
+/− RCB2 (rat CB2 receptor (rCB2)): +

CNC(=O)[C@@H](NC(=O)c1nc(-c2cc(OC)cc(C(F)(F)F)c2)n2c1CN(C)CCC2)C(C)(C)C [Compound 418, (S)-N-(3,3-dimethyl-1-(methylamino)-1-oxobutan-2-yl)-3-(3-methoxy-5-(trifluoromethyl)phenyl)-8-methyl-6,7,8,9-tetrahydro-5H-imidazo[1,5-a][1,4]diazepine-1-carboxamide]
EC50 [1]: > 10000 nM
+/− RCB2 (rat CB2 receptor (rCB2)): −

CNC(=O)[C@@H](NC(=O)c1nc(-c2ccc(-c3ccccc3)c(F)c2)n2c1CN(C)CCC2)C(C)(C)C [Compound 419, (S)-N-(3,3-dimethyl-1-(methylamino)-1-oxobutan-2-yl)-3-(2-fluorobiphenyl-4-yl)-8-methyl-6,7,8,9-tetrahydro-5H-imidazo[1,5-a][1,4]diazepine-1-carboxamide]
EC50 [1]: > 10000 nM
EC50 (rat CB2 receptor (rCB2)): > 10000 nM

CNC(=O)[C@@H](NC(=O)c1nc(-c2ccc(NS(C)(=O)=O)cc2)n2c1CN(C)CCC2)C(C)(C)C [Compound 420, (S)-N-(3,3-dimethyl-1-(methylamino)-1-oxobutan-2-yl)-8-methyl-3-(4-(methylsulfonamido)phenyl)-6,7,8,9-tetrahydro-5H-imidazo[1,5-a][1,4]diazepine-1-carboxamide]
EC50 [1]: > 10000 nM
+/− RCB2 (rat CB2 receptor (rCB2)): −
